This note sets out measurements from patent US8304446B2, “Compounds” (Glaxo Group Limited, priority 2009, dated 2012).

Molecules are shown by their SMILES. Structures can show the parent of a compound that is named as a salt. Bounds are passed on as bounds.

The subject of this test is CD4+ CCR4+ T cells. Briefly: Chemokine stimulated increases in cellular F-actin content. The class given is cell-based. The note with it: Homo sapiens, T-cell, 0.5 h; PBMC from normal volunteers; antagonist 30 min at 37° C. before agonist for 15 sec; F-actin content by flow cytometry; read-out: pA2 (converted). As to the method:
Chemokine Stimulated Increases in Cellular F-Actin Content
Blood was taken from normal volunteers who had taken no medication within the previous ten days and mixed with 1/9 of the volume of 3.8% tri-sodium citrate solution. Chemokine-induced increases in the F-actin content of CD4+ CCR4+ T cells were measured by a modification of the method of Pilette et al. (Eur. Respir. J; 23: 876-884, 2004). Peripheral blood mononuclear cells (PBMC) were isolated by dextran sedimentation followed by Percoll density gradient centrifugation. The PBMCs were incubated with FITC-conjugated anti-human CD4 and PE-conjugated anti-CCR4 antibodies or appropriate isotype controls for 15 min. The cell suspensions were then centrifuged at 400 g for 10 min and the pellets resuspended in assay buffer (phenol red-free RPMI 1640 medium containing 10 mM HEPES and 0.1% bovine serum albumin) at 10^7/mL. The resulting cell suspension was incubated with antagonist or vehicle (0.1% DMSO) for 30 min at 37° C. before stimulation with the agonist for 15 sec. The assay was terminated by addition of 3% formaldehyde. The fixed cells were washed twice with PBS (centrifuging at 1000 g for 5 min to recover the cells) and incubated at room temperature with Alexa fluor-647 phalloidin (0.075 U/mL) in the presence of lyso-phosphatidylcholine (93.75 μg/ml) for 20 min to stain F-actin. The cells were washed once more with PBS and the relative F-actin content of the cells was measured flow cytometrically. The mean fluorescence intensity of 1000 CD4^+ CCR4^+ cells per sample was determined and expressed as a fraction of the mean intensity of the CD4^+ CCR4^− cells in that sample.
With `COc1cccc2c1c(NS(=O)(=O)c1ccc(C)s1)nn2Cc1cccc(C(N)=O)c1` [Example 66, 3-[(4-(Methyloxy)-3-{[(5-methyl-2-thienyl)sulfonyl]amino}-1H-indazol-1-yl)methyl]benzamide], the Kb was at most 126 nM.

For the compound `COc1cccc2c1c(NS(=O)(=O)c1ccc(Cl)s1)nn2Cc1cccc(CNC(=O)[C@H]2CCN2)c1` [Example 50, (2R)—N-[(3-{[3-{[(5-Chloro-2-thienyl)sulfonyl]amino}-4-(methyloxy)-1H-indazol-1-yl]methyl}phenyl)methyl]-2-azetidinecarboxamide trifluoroacetate], the Kb is at most 126 nM. Consider `COCC(=O)NCc1cccc(Cn2nc(NS(=O)(=O)c3ccc(Cl)s3)c3c(OC)cccc32)c1` [Example 30, N-[(3-{[3-{[(5-Chloro-2-thienyl)sulfonyl]amino}-4-(methyloxy)-1H-indazol-1-yl]methyl}phenyl)methyl]-2-(methyloxy)acetamide], for which the Kb is at most 126 nM. In the case of `COc1cccc2c1c(NS(=O)(=O)c1ccc(Cl)s1)nn2Cc1cccc(CNC(=O)NC(C)(C)C)c1` [Example 60, 5-Chloro-N-[1-({3-[({[(1,1-dimethylethyl)amino]carbonyl}amino)methyl]phenyl}methyl)-4-(methyloxy)-1H-indazol-3-yl]-2-thiophenesulfonamide], the Kb is at most 126 nM. The value for `COc1cccc2c1c(NS(=O)(=O)c1ccc(Cl)s1)nn2Cc1cccc(C(N)=O)c1` [Example 64, 3-{[3-{[(5-Chloro-2-thienyl)sulfonyl]amino}-4-(methyloxy)-1H-indazol-1-yl]methyl}benzamide] was at most 126 nM; that for `COc1cc(Cn2nc(NS(=O)(=O)c3ccc(Cl)s3)c3c(OC)cccc32)ccc1OCCN(C)C` [Example 76, 5-Chloro-N-[1-{[4-{[2-(dimethylamino)ethyl]oxy}-3-(methyloxy)phenyl]methyl}-4-(methyloxy)-1H-indazol-3-yl]-2-thiophenesulfonamide] was at most 126 nM. In the case of `COc1cccc2c1c(NS(=O)(=O)c1ccc(Cl)s1)nn2Cc1cccc(CNC(C)=O)c1` [Example 1, N-[(3-{[3-{[(5-Chloro-2-thienyl)sulfonyl]amino}-4-(methyloxy)-1H-indazol-1-yl]methyl}phenyl)methyl]acetamide], the Kb is at most 126 nM. For the compound `COc1cccc2c1c(NS(=O)(=O)c1ccc(Cl)s1)nn2Cc1cccc(CNC(=O)[C@@]2(C)CCCN2)c1` [Example 13, N-[(3-{[3-{[(5-Chloro-2-thienyl)sulfonyl]amino}-4-(methyloxy)-1H-indazol-1-yl]methyl}phenyl)methyl]-2-methyl-D-prolinamide], the Kb is at most 126 nM. The value for `COc1cccc2c1c(NS(=O)(=O)c1ccc(Cl)s1)nn2Cc1cccc(CNC(=O)[C@H]2CCCN2C)c1` [Example 40, N-[(3-{[3-{[(5-Chloro-2-thienyl)sulfonyl]amino}-4-(methyloxy)-1H-indazol-1-yl]methyl}phenyl)methyl]-1-methyl-D-prolinamide trifluoroacetate] was at most 126 nM.

Turning to `COc1cccc2c1c(NS(=O)(=O)c1ccc(Cl)s1)nn2Cc1cccc(CNC(=O)[C@H](C)N(C)C)c1` [Example 31, N^1-[(3-{[3-{[(5-Chloro-2-thienyl)sulfonyl]amino}-4-(methyloxy)-1H-indazol-1-yl]methyl}phenyl)methyl]-N^2,N^2-dimethylalaninamide trifluoroacetate], the Kb is at most 126 nM. The value for `O=C(NCc1cccc(Cn2nc(NS(=O)(=O)c3ccc(Cl)s3)c3c(O)cccc32)c1)[C@H]1COCCN1` [Example 111, (3R)—N-({3-[(3-{[(5-chloro-2-thienyl)sulfonyl]amino}-4-hydroxy-1H-indazol-1-yl)methyl]phenyl}methyl)-3-morpholinecarboxamide formate salt] was at most 126 nM; that for `COc1cccc2c1c(NS(=O)(=O)c1ccc(Cl)s1)nn2Cc1ccc(S(N)(=O)=O)cc1` [Example 62, N-[1-{[4-(Aminosulfonyl)phenyl]methyl}-4-(methyloxy)-1H-indazol-3-yl]-5-chloro-2-thiophenesulfonamide] was at most 126 nM; that for `COc1cccc2c1c(NS(=O)(=O)c1ccc(Br)s1)nn2Cc1cccc(C(N)=O)c1` [Example 67, 3-{[3-{[(5-Bromo-2-thienyl)sulfonyl]amino}-4-(methyloxy)-1H-indazol-1-yl]methyl}benzamide] was at most 126 nM. Next, `CNCCC(=O)NCc1cccc(Cn2nc(NS(=O)(=O)c3ccc(Cl)s3)c3c(OC)cccc32)c1` [Example 29, N^1-[(3-{[3-{[(5-Chloro-2-thienyl)sulfonyl]amino}-4-(methyloxy)-1H-indazol-1-yl]methyl}phenyl)methyl]-N^3-methyl-β-alaninamide trifluoroacetate]: at most 126 nM; `COc1cccc2c1c(NS(=O)(=O)c1ccc(Cl)s1)nn2Cc1cccc(CNC(=O)C2(N)CCC2)c1` [Example 83, 1-Amino-N-[(3-{[3-{[(5-chloro-2-thienyl)sulfonyl]amino}-4-(methyloxy)-1H-indazol-1-yl]methyl}phenyl)methyl]cyclobutanecarboxamide trifluoroacetate]: at most 126 nM.

In the case of `COc1cccc2c1c(NS(=O)(=O)c1ccc(C)s1)nn2Cc1cccc(CNC(=O)[C@H]2COCCN2)c1` [Example 160, (3R)—N-({3-[(4-(Methyloxy)-3-{[(5-methyl-2-thienyl)sulfonyl]amino}-1H-indazol-1-yl)methyl]phenyl}methyl)-3-], the Kb was at most 126 nM. Next, `COc1cccc2c1c(NS(=O)(=O)c1ccc(Cl)s1)nn2Cc1cccc(CNC(=O)CC2CCCN2)c1` (centres unmarked) [Example 24, N-[(3-{[3-{[(5-chloro-2-thienyl)sulfonyl]amino}-4-(methyloxy)-1H-indazol-1-yl]methyl}phenyl)methyl]-2-(2-pyrrolidinyl)acetamide trifluoroacetate]: at most 126 nM; `COc1cccc2c1c(NS(=O)(=O)c1ccc(Cl)s1)nn2Cc1cccc(CNC(=O)CCN)c1` [Example 78, N^1-[(3-{[3-{[(5-Chloro-2-thienyl)sulfonyl]amino}-4-(methyloxy)-1H-indazol-1-yl]methyl}phenyl)methyl]-β-alaninamide trifluoroacetate]: at most 126 nM; `CNC(=O)Cc1cccc(Cn2nc(NS(=O)(=O)c3ccc(Cl)s3)c3c(OC)cccc32)c1` [Example 63, 2-(3-{[3-{[(5-Chloro-2-thienyl)sulfonyl]amino}-4-(methyloxy)-1H-indazol-1-yl]methyl}phenyl)-N-methylacetamide]: at most 126 nM.

As to `COc1cccc2c1c(NS(=O)(=O)c1ccc(Cl)s1)nn2Cc1cccc(CNC(=O)[C@@H](C)N)c1` [Example 19, N^1-[(3-{[3-{[(5-chloro-2-thienyl)sulfonyl]amino}-4-(methyloxy)-1H-indazol-1-yl]methyl}phenyl)methyl]-D-alaninamide trifluoroacetate], the Kb was at most 126 nM. Consider `COC(=O)[C@@H](N)CC(=O)NCc1cccc(Cn2nc(NS(=O)(=O)c3ccc(Cl)s3)c3c(OC)cccc32)c1` [Example 23, Methyl N^4-[(3-{[3-{[(5-chloro-2-thienyl)sulfonyl]amino}-4-(methyloxy)-1H-indazol-1-yl]methyl}phenyl)methyl]asparaginate trifluoroacetate], for which the Kb was at most 126 nM. For the compound `COc1cccc2c1c(NS(=O)(=O)c1ccc(Cl)s1)nn2Cc1cccc(CNC(=O)NC(C)C)c1` [Example 61, 5-Chloro-N-[1-({3-[({[(1-methylethyl)amino]carbonyl}amino)methyl]phenyl}methyl)-4-(methyloxy)-1H-indazol-3-yl]-2-thiophenesulfonamide], the Kb is at most 126 nM.

`NC(=O)c1cccc(Cn2nc(NS(=O)(=O)c3ccc(Cl)s3)c3c(O)ccc(F)c32)c1` [Example 69, 3-[(3-{[(5-Chloro-2-thienyl)sulfonyl]amino}-7-fluoro-4-hydroxy-1H-indazol-1-yl)methyl]benzamide]: the Kb was at most 126 nM.

`COc1cccc2c1c(NS(=O)(=O)c1ccc(Cl)s1)nn2Cc1cccc(CNC(=O)[C@@H](N)CCCCN)c1` [Example 49, N^1-[(3-{[3-{[(5-Chloro-2-thienyl)sulfonyl]amino}-4-(methyloxy)-1H-indazol-1-yl]methyl}phenyl)methyl]-L-lysinamide]: the Kb is at most 126 nM. Consider `COc1cccc2c1c(NS(=O)(=O)c1ccc(Cl)s1)nn2Cc1cccc(CNC(=O)CC(C)N)c1` (centres unmarked) [Example 25, 3-Amino-N-[(3-{[3-{[(5-chloro-2-thienyl)sulfonyl]amino}-4-(methyloxy)-1H-indazol-1-yl]methyl}phenyl)methyl]butanamide trifluoroacetate], for which the Kb was at most 126 nM. The value for `COc1cccc2c1c(NS(=O)(=O)c1ccc(Cl)s1)nn2Cc1cccc(CNC(=O)[C@@H](N)Cc2ccccc2)c1` [Example 47, N-[(3-{[3-{[(5-Chloro-2-thienyl)sulfonyl]amino}-4-(methyloxy)-1H-indazol-1-yl]methyl}phenyl)methyl]-L-phenylalaninamide] was at most 126 nM.
